Reference: PubChem BioAssay AID248 (DTP/NCI, 2004)
“And” between values parts separate entries of the source, which are not always exact repeats. Equal entries are not always repeated. Inconclusive results and toxic doses are left out. Rule as the data show it: active = T/C of 150% or more; inactive = T/C below 125%.

Tested on: L1210 leukemia ip in BDF1 mice, survival T/C
Test: NCI In Vivo Anticancer Drug Screen. Data for tumor model L1210 Leukemia (intraperitoneal) in B6D2F1 (BDF1) mice
Settings: endpoint: mean survival time, higher = longer survival
In short: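 Mice bearing the transplanted tumor received compound or vehicle. Survival of the treated group was divided by that of the vehicle-treated control group to give the ratio.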

[1] = dose: 100.0 mg/kg/injection, schedule: Q04DX003 (ip), vehicle: saline
[2] = dose: 100.0 mg/kg/injection, schedule: Q01DX009 (ip), vehicle: Klucel (hydroxypropylcellulose) (HPC)
[3] = dose: 100.0 mg/kg/injection, schedule: Q04DX003 (ip), vehicle: Klucel (hydroxypropylcellulose) (HPC)
[4] = dose: 200.0 mg/kg/injection, schedule: Q01DX009 (ip), vehicle: Klucel (hydroxypropylcellulose) (HPC)
[5] = dose: 200.0 mg/kg/injection, schedule: Q04DX003 (ip), vehicle: Klucel (hydroxypropylcellulose) (HPC)
[6] = dose: 400.0 mg/kg/injection, schedule: Q04DX003 (ip), vehicle: Klucel (hydroxypropylcellulose) (HPC)
[7] = dose: 50.0 mg/kg/injection, schedule: Q01DX009 (ip), vehicle: saline
[8] = dose: 100.0 mg/kg/injection, schedule: Q01DX009 (ip), vehicle: saline
[9] = dose: 200.0 mg/kg/injection, schedule: Q01DX009 (ip), vehicle: saline
[10] = dose: 25.0 mg/kg/injection, schedule: Q01DX009 (ip), vehicle: saline
[11] = dose: 50.0 mg/kg/injection, schedule: Q01DX009 (ip), vehicle: Klucel (hydroxypropylcellulose) (HPC)
[12] = dose: 100.0 mg/kg/injection, schedule: Q04DX002 (ip), vehicle: saline
[13] = dose: 200.0 mg/kg/injection, schedule: Q04DX002 (ip), vehicle: saline

Measured: T/C

Cc1cccnc1C
inactive: dose: 10.0 mg/kg/injection, schedule: Q01DX009 (ip), vehicle: saline 105 % of control | dose: 20.0 mg/kg/injection, schedule: Q01DX009 (ip), vehicle: saline 111 % of control | dose: 30.0 mg/kg/injection, schedule: Q01DX009 (ip), vehicle: saline 115 % of control | dose: 40.0 mg/kg/injection, schedule: Q04DX003 (ip), vehicle: saline 112 % of control | dose: 80.0 mg/kg/injection, schedule: Q04DX003 (ip), vehicle: saline 107 % of control | [1] 100 % of control

O=C(Nc1ccccc1F)C(c1ccccc1)c1ccccc1
inactive: [2] 103 % of control | [3] 96 % of control | [4] 93 % of control | [5] 95 % of control | dose: 400.0 mg/kg/injection, schedule: Q01DX009 (ip), vehicle: Klucel (hydroxypropylcellulose) (HPC) 94 % of control | [6] 95 % of control

CN1C(=O)OC2(CCN(Cc3ccc([N+](=O)[O-])o3)CC2)C1=O
inactive: [3] 98 % of control | [5] 96 % of control | [6] 98 % of control

C#CC(C)OCC1CO1 (stereo not drawn)
inactive: [7] 86 % of control | [8] 86 % of control | dose: 100.0 mg/kg/injection, schedule: Q04DX003 (ip), vehicle: saline sonified 117 % of control | [9] 93 % of control | dose: 200.0 mg/kg/injection, schedule: Q04DX003 (ip), vehicle: saline sonified 93 % of control

C/C(=N/N(C)C)c1ccc(F)cc1
inactive: dose: 6.25 mg/kg/injection, schedule: Q01DX009 (ip), vehicle: saline 94 % of control | dose: 12.5 mg/kg/injection, schedule: Q01DX009 (ip), vehicle: saline 98 % of control | [10] 106 % of control | [7] 101 % of control | [8] 94 % of control

NCCc1ccc(F)cc1
inactive: [8] 109 % of control | [9] 97 % of control

CN(C)CCN1C(=O)c2ccccc2N(C)c2ccccc21
inactive: dose: 25.0 mg/kg/injection, schedule: Q04DX003 (ip), vehicle: saline 96 % of control | dose: 50.0 mg/kg/injection, schedule: Q04DX003 (ip), vehicle: saline 96 % of control

CC(O)C(O)CC(/C=N/NC(=O)c1ccccc1)=N/NC(=O)c1ccccc1 (stereo not drawn)
inactive: [3] 107 % of control | [5] 115 % of control | [6] 109 % of control

CCOC(=O)NOS(=O)(=O)c1ccc([N+](=O)[O-])cc1
inactive: dose: 100.0 mg/kg/injection, schedule: Q04DX003 (ip), vehicle: saline with Tween-80 100 % of control | dose: 200.0 mg/kg/injection, schedule: Q04DX003 (ip), vehicle: saline with Tween-80 96 % of control | dose: 400.0 mg/kg/injection, schedule: Q04DX003 (ip), vehicle: saline with Tween-80 98 % of control

CCCCc1cccc2c1OCO2
inactive: dose: 100.0 mg/kg/injection, schedule: Q01DX001 (ip), vehicle: saline 103 % of control | dose: 200.0 mg/kg/injection, schedule: Q01DX001 (ip), vehicle: saline 103 % of control

O=[N+]([O-])CC(O)c1ccc2ccccc2n1 (stereo not drawn)
inactive: dose: 50.0 mg/kg/injection, schedule: Q01DX009 (ip), vehicle: water 100 % of control | [8] 91 % of control | dose: 100.0 mg/kg/injection, schedule: Q01DX009 (ip), vehicle: water 100 % of control | [1] 93 % of control | [9] 94 % of control | dose: 200.0 mg/kg/injection, schedule: Q01DX009 (ip), vehicle: water 87 % of control | dose: 200.0 mg/kg/injection, schedule: Q04DX003 (ip), vehicle: saline 90 % of control

CC(=O)OC12CCC(O1)C1C(=O)OC(=O)C12 (stereo not drawn)
inactive: [3] 101 % of control | [5] 97 % of control | [6] 97 % of control

C[C@@H]1C[C@@]2(C)[C@@H](CC[C@@H]3[C@@H]2CC[C@]2(C)OC(=O)CC[C@@H]32)CC1=O
inactive: [11] 95 % of control | [2] 97 % of control | dose: 100.0 mg/kg/injection, schedule: Q04DX003 (ip), vehicle: other 98 % of control | [4] 100 % of control | dose: 200.0 mg/kg/injection, schedule: Q04DX003 (ip), vehicle: other 101 % of control

O=S1(=O)CC2(N3CCCC3)CCCCC21 (stereo not drawn)
inactive: dose: 75.0 mg/kg/injection, schedule: Q01DX001 (ip), vehicle: saline 98 % of control | dose: 150.0 mg/kg/injection, schedule: Q01DX001 (ip), vehicle: saline 100 % of control | dose: 300.0 mg/kg/injection, schedule: Q01DX001 (ip), vehicle: saline 100 % of control

O=C(O)c1cc(N=Nc2ccc(S(=O)(=O)Nc3nccs3)cc2)ccc1O
inactive: dose: 100.0 mg/kg/injection, schedule: Q01DX001 (ip), vehicle: carboxymethylcellulose (CMC) 95 % of control | dose: 200.0 mg/kg/injection, schedule: Q01DX001 (ip), vehicle: carboxymethylcellulose (CMC) 95 % of control | dose: 400.0 mg/kg/injection, schedule: Q01DX001 (ip), vehicle: carboxymethylcellulose (CMC) 101 % of control

NC1CC(=O)NC1=O (stereo not drawn)
inactive: [12] 93 % of control | [13] 100 % of control | dose: 400.0 mg/kg/injection, schedule: Q04DX002 (ip), vehicle: saline 100 % of control

COc1cc([N+](=O)[O-])ccc1NC(=O)Oc1ccccc1C(N)=O
inactive: dose: 12.5 mg/kg/injection, schedule: Q01DX009 (ip), vehicle: Klucel (hydroxypropylcellulose) (HPC) 102 % of control | dose: 25.0 mg/kg/injection, schedule: Q01DX009 (ip), vehicle: Klucel (hydroxypropylcellulose) (HPC) 100 % of control | [11] 98 % of control

CC(C)[As](=O)(O)O
inactive: [10] 97 % of control | [7] 90 % of control | [8] 104 % of control and 106 % of control

Cc1ccc(C(=O)n2c(Cl)c(/C=N/NC(N)=S)c3ccccc32)cc1
inactive: dose: 50.0 mg/kg/injection, schedule: Q04DX002 (ip), vehicle: Klucel (hydroxypropylcellulose) (HPC) 87 % of control | dose: 100.0 mg/kg/injection, schedule: Q04DX002 (ip), vehicle: Klucel (hydroxypropylcellulose) (HPC) 95 % of control

Nc1ncnc2c1ncn2C1OC(COP(=O)(O)O)C(O)C1O (stereo not drawn)
inactive: dose: 9.4 mg/kg/injection, schedule: Q03HX016 (ip), vehicle: water 108 % of control | dose: 9.4 mg/kg/injection, schedule: Q03HX024 (ip), vehicle: water 104 % of control | dose: 18.8 mg/kg/injection, schedule: Q03HX016 (ip), vehicle: water 108 % of control | dose: 18.8 mg/kg/injection, schedule: Q03HX024 (ip), vehicle: water 106 % of control | dose: 37.5 mg/kg/injection, schedule: Q03HX016 (ip), vehicle: water 108 % of control | dose: 37.5 mg/kg/injection, schedule: Q03HX024 (ip), vehicle: water 110 % of control | dose: 75.0 mg/kg/injection, schedule: Q03HX016 (ip), vehicle: water 116 % of control | dose: 75.0 mg/kg/injection, schedule: Q03HX024 (ip), vehicle: water 115 % of control | dose: 100.0 mg/kg/injection, schedule: Q01DX005 (ip), vehicle: saline 98 % of control | dose: 200.0 mg/kg/injection, schedule: Q01DX005 (ip), vehicle: saline 98 % of control

CCC(=O)OC1CCC2(C)C(=CCC3C2CCC2(C)C(C(C)CCCC(C)C)CCC32)C1 (stereo not drawn)
inactive: dose: 100.0 mg/kg/injection, schedule: Q01DX001 (ip), vehicle: other 91 % of control | dose: 200.0 mg/kg/injection, schedule: Q01DX001 (ip), vehicle: other 91 % of control

Cc1cnc(NCCCC(N)C(=O)O)nc1 (stereo not drawn)
inactive: [12] 95 % of control | [13] 95 % of control
